Experimental data reported in patent US20230416225A1, “DIAMINOPYRIMIDINE CARBOXAMIDE INHIBITORS OF HPK1” (MERCK SHARP & DOHME LLC, priority 2020, published 2023).

Target: T1, Human HPK1, catalytic domain (Homo sapiens, UniProt Q92918)
T1 construct: purchased Carna
T1 sequence (Q92918 1-346): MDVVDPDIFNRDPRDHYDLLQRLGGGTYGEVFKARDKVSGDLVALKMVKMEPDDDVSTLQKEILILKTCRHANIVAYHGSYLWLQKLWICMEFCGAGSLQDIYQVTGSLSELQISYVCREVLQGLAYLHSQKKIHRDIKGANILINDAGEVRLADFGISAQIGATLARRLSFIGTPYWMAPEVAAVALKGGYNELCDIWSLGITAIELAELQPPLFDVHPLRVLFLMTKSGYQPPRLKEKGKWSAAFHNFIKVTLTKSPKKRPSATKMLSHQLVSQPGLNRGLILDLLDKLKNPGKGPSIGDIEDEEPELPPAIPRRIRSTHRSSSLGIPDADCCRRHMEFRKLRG
Assay: HPK1-SLP76 TR-FRET assay
Type: biochemical
Conditions: 75 pM HPK1, 10 uM ATP, 10 nM SLP76, 30 min compound pre-incubation

SMILES	IC50 [nM]
COc1cc2c(cc1Nc1ncc(C(N)=O)c(N[C@H]3c4ccccc4C[C@H]3O)n1)CN(C)CC2 [Example 26-63, 4-{[(1S,2R)-2-hydroxy-2,3-dihydro-1H-inden-1-yl]amino}-2-[(6-methoxy-2-methyl-1,2,3,4-tetrahydroisoquinolin-7-yl)amino]pyrimidine-5-carboxamide]	109
COc1cc2c(cc1Nc1ncc(C(N)=O)c(Nc3ccccc3Br)n1)CN(C(=O)C1(C)CCC1)CC2 [Example 12-8, 4-[(2-bromophenyl)amino]-2-{[6-methoxy-2-(1-methylcyclobutane-1-carbonyl)-1,2,3,4-tetrahydroisoquinolin-7-yl]amino}pyrimidine-5-carboxamide]	344
COc1cc2c(cc1Nc1ncc(C(N)=O)c(Nc3cc(C)ccc3Cl)n1)CN(C)CC2 [Example 4-18, 4-[(2-chloro-5-methylphenyl)amino]-2-[(6-methoxy-2-methyl-1,2,3,4-tetrahydroisoquinolin-7-yl)amino]pyrimidine-5-carboxamide]	0.48
COc1cc2c(cc1Nc1ncc(C(N)=O)c(Nc3c(F)cccc3OC(F)F)n1)CN(C)CC2 [Example 4-31, 4-{[2-(difluoromethoxy)-6-fluorophenyl]amino}-2-1(6-methoxy-2-methyl-1,2,3,4-tetrahydroisoquinolin-7-yl)amino|pyrimidine-5-carboxamide]	0.2
CC[C@H](C)Cc1ccccc1Nc1nc(Nc2cc3c(cc2OC)CCN(C)C3)ncc1C(N)=O [Example 13-6, 2-[(6-methoxy-2-methyl-1,2,3,4-tetrahydroisoquinolin-7-yl)amino]-4-({2-[(2S)-2-methylbutyl]phenyl}amino)pyrimidine-5-carboxamide]	597
COc1nn(CC(F)(F)F)cc1Nc1ncc(C(N)=O)c(Nc2cccc3c2CCN(C)C3)n1 [Example 7-62, 2-{[3-methoxy-1-(2,2,2-trifluoroethyl)-1H-pyrazol-4-yl]amino}-4-[(2-methyl-1,2,3,4-tetrahydroisoquinolin-5-yl)amino]pyrimidine-5-carboxamide]	56
COc1cc2c(cc1Nc1ncc(C(N)=O)c(Nc3cccc4c3CCN(C)C4=O)n1)CN(C)CC2 [Example 7-35, 2-[(6-methoxy-2-methyl-1,2,3,4-tetrahydroisoquinolin-7-yl)amino]-4-[(2-methyl-1-oxo-1,2,3,4-tetrahydroisoquinolin-5-yl)amino]pyrimidine-5-carboxamide]	1.49
NC(=O)c1cnc(Nc2ccccc2)nc1Nc1cccc2c1CCNC2=O [Example 25-1, 4-[(1-oxo-1,2,3,4-tetrahydroisoquinolin-5-yl)amino]-2-(phenylamino)pyrimidine-5-carboxamide]	24.4
COc1cc2c(cc1Nc1ncc(C(N)=O)c(N[C@@H]3COC[C@H]3SC)n1)CN(C)CC2 [Example 26-8, 2-[(6-methoxy-2-methyl-1,2,3,4-tetrahydroisoquinolin-7-yl)amino]-4-{[(3R,4S)-4-(methylsulfanyl)oxolan-3-yl]amino}pyrimidine-5-carboxamide]	0.95
COc1cc2c(cc1Nc1ncc(C(N)=O)c(NC3CCC(c4ccccc4)C3)n1)CN(C)CC2 (centres unmarked) [Example 26-12, 2-[(6-methoxy-2-methyl-1,2,3,4-tetrahydroisoquinolin-7-yl)amino]-4-[(3-phenylcyclopentyl)amino]pyrimidine-5-carboxamide]	18.1
NC(=O)c1cnc(Nc2cnn(CC3CC3)c2)nc1Nc1cccc2c1CCNC2=O [Example 7-43, 2-{[1-(cyclopropylmethyl)-1H-pyrazol-4-yl]amino}-4-[(1-oxo-1,2,3,4-tetrahydroisoquinolin-5-yl)amino]pyrimidine-5-carboxamide]	4.25
Cn1cc(Nc2ncc(C(N)=O)c(Nc3cccc4c3CCNC4=O)n2)c(OCC(F)F)n1 [Example 7-55, 2-{[3-(2,2-difluoroethoxy)-1-methyl-1H-pyrazol-4-yl]amino}-4-[(1-oxo-1,2,3,4-tetrahydroisoquinolin-5-yl)amino]pyrimidine-5-carboxamide]	15.3
COc1cc2c(cc1Nc1ncc(C(N)=O)c(Nc3ccccc3Br)n1)CN(C(=O)C1(C(F)(F)F)CCC1)CC2 [Example 12-6, 4-[(2-bromophenyl)amino]-2-({6-methoxy-2-[1-(trifluoromethyl)cyclobutane-1-carbonyl]-1,2,3,4-tetrahydroisoquinolin-7-yl}amino)pyrimidine-5-carboxamide]	27.7
COCC(=O)N1CCc2cc(OC)c(Nc3ncc(C(N)=O)c(Nc4ccccc4Br)n3)cc2C1 [Example 12-5, 4-[(2-bromophenyl)amino]-2-{[6-methoxy-2-(methoxyacetyl)-1,2,3,4-tetrahydroisoquinolin-7-yl]amino}pyrimidine-5-carboxamide]	112
COc1cc2c(cc1Nc1ncc(C(N)=O)c(Nc3ccccc3Br)n1)CN(C1CC(C(=O)O)C1)CC2 (centres unmarked) [Example 9-10, 3-[7-({4-[(2-bromophenyl)amino]-5-carbamoylpyrimidin-2-yl}amino)-6-methoxy-3,4-dihydroisoquinolin-2(1H)-yl]cyclobutane-1-carboxylic acid]	1.6
NC(=O)c1cnc(Nc2ccc3c(c2)COC3=O)nc1Nc1ccccc1Br [Example 7-103, 4-[(2-bromopehnyl)amino]-2-[(1-oxo-1,3-dihydro-2-benzofuran-5-yl)amino]pyrimidine-5-carboxamide]	188
NC(=O)c1cnc(Nc2cnn3c2OCCC3)nc1Nc1cccc2c1CCNC2=O [Example 7-57, 2-[(6,7-dihydro-5H-pyrazolo[5,1-b][1,3]oxazin-3-yl)amino]-4-[(1-oxo-1,2,3,4-tetrahydroisoquinolin-5-yl)amino]pyrimidine-5-carboxamide]	1.31
Cc1cc(Nc2ncc(C(N)=O)c(Nc3cccc4c3CCNC4=O)n2)ccc1F [Example 25-30, 2-[(4-fluoro-3-methylphenyl)amino]-4-[(1-oxo-1,2,3,4-tetrahydroisoquinolin-5-yl)amino]pyrimidine-5-carboxamide]	0.72
COc1cc2c(cc1Nc1ncc(C(N)=O)c(Nc3ccccc3C#N)n1)CN(C)CC2 [Example 7-49, 4-[(2-cyanophenyl)amino]-2-[(6-methoxy-2-methyl-1,2,3,4-tetrahydroisoquinolin-7-yl)amino]pyrimidine-5-carboxamide]	0.34
CN1Cc2ccc(Nc3ncc(C(N)=O)c(Nc4cccc5c4CCNC5)n3)cc2C1=O [Example 7-64, 2-[(2-methyl-3-oxo-2,3-dihydro-1H-isoindolin-5-yl)amino]-4-[(1,2,3,4-tetrahydroisoquinolin-5-yl)amino]pyrimidine-5-carboxamide]	3.65
NC(=O)c1cnc(Nc2ccc(F)c(C(F)(F)F)c2)nc1Nc1cccc2c1CCNC2=O [Example 25-37, 2-{[4-fluoro-3-(trifluoromethyl)phenyl]amino}-4-[(1-oxo-1,2,3,4-tetrahydroisoquinolin-5-yl)amino]pyrimidine-5-carboxamide]	69
COc1cc2c(cc1Nc1ncc(C(N)=O)c(N[C@@H]3CCCC[C@H]3C(C)(C)O)n1)CN(C)CC2 [Example 26-42, 4-{[(1R,2R)-2-(2-hydroxypropan-2-yl)cyclohexyl]amino}-2-[(6-methoxy-2-methyl-1,2,3,4-tetrahydroisoquinolin-7-yl)amino]pyrimidine-5-carboxamide]	205
CCOc1ccccc1Nc1nc(Nc2cc3c(cc2OC)CCN(C)C3)ncc1C(N)=O [Example 7-112, 4-[(2-ethoxyphenyl)amino]-2-[(6-methoxy-2-methyl-1,2,3,4-tetrahydroisoquinolin-7-yl)amino]pyrimidine-5-carboxamide]	0.03
NC(=O)c1cnc(Nc2cnn3c2CCCC3)nc1Nc1cccc2c1CCNC2=O [Example 7-53, 4-[(1-oxo-1,2,3,4-tetrahydroisoquinolin-5-yl)amino]-2-[(4,5,6,7-tetrahydropyrazolo[1,5-a]pyridin-3-yl)amino]pyrimidine-5-carboxamide]	3.94
COc1cc2c(cc1Nc1ncc(C(N)=O)c(Nc3c(F)cccc3F)n1)CNCC2 [Example 9-11, 4-(2,6-difluoroanilino)-2-[(6-methoxy-1,2,3,4-tetrahydroisoquinolin-7-yl)amino]pyrimidine-5-carboxamide]	0.79
Cc1cccc(F)c1Nc1nc(Nc2cc3c(cc2Cl)CCN(C)C3)ncc1C(N)=O [Example 4-5, 2-[(6-chloro-2-methyl-1,2,3,4-tetrahydroisoquinolin-7-yl)amino]-4-[(2-fluoro-6-methylphenyl)amino] pyrimidine-5-carboxamide]	0.61
COc1cc2c(cc1Nc1ncc(C(N)=O)c(Nc3c(O)cccc3F)n1)CN(C)CC2 [Example 4-17, 4-[(2-fluoro-6-hydroxyphenyl)amino]-2-[(6-methoxy-2-methyl-1,2,3,4-tetrahydroisoquinolin-7-yl)amino]pyrimidine-5-carboxamide]	1.01
COc1cc2c(cc1Nc1ncc(C(N)=O)c(NC3CC[C@H]4NCCC[C@@H]34)n1)CN(C)CC2 (stereo partly drawn) [Example 26-10, 2-[(6-methoxy-2-methyl-1,2,3,4-tetrahydroisoquinolin-7-yl)amino]-4-{[(4aR,7aR)-octahydro-1H-cyclopenta[b]pyridin-5-yl]amino}pyrimidine-5-carboxamide]	1.06
CN1CCc2cc(F)c(Nc3ncc(C(N)=O)c(Nc4cccc5c4CCNC5=O)n3)cc2C1 [Example 7-37, 2-[(6-fluoro-2-methyl-1,2,3,4-tetrahydroisoquinolin-7-yl)amino]-4-[(1-oxo-1,2,3,4-tetrahydroisoquinolin-5-yl)amino]pyrimidine-5-carboxamide]	0.21
